“And” between values parts separate entries of the source, which are not always exact repeats. Identical values can stand only once.
Test system: S. mutans UA159
Assay: pH of culture medium of S. mutans biofilms after 1 minute incubation with test treatments
Type: cell-based, Streptococcus mutans
Settings: for pH of the medium, Average: average of samples; for pH of the medium: individual samples 1-4; for drop in pH of the medium (initial pH minus pH at 6 or 8 hours): 6 and 8 hours after treatment, FIGS. 2 and 3; for statistical significance of pH results compared to the water control: p<0.05
Description: Amongst acidogenic bacteria, S. mutans is the principal etiological agent of caries in humans. Since there is a strong correlation between the proportion of S. mutans in dental plaque or in saliva relative to other bacterial species and the presence or risk of future outbreaks of dental caries, S. mutans in plaque or saliva may serve as an index for both dental caries activity state and dental caries risk or susceptibility. S. mutans UA159 strain was used in this Example.
On the first day, biofilm growth was initiated by inoculating 10 mL of 100% Todd-Hewitt broth (THYE) with 0.3% yeast extract at a pH of 7.0 with UA159 to prepare overnight cultures. The samples were incubated in closed screw-cap tubes without agitation at 37° C. in an anaerobic chamber (5% CO2).
On the second day, 1:100 dilutions were prepared by mixing 20 pl of the overnight UA159 cultures with ¼ THYE with 0.075% yeast extract supplemented with 0.1% sucrose to reach a final volume of 2 mL. The dilutions were then placed into the wells of 12-well plates.
On the third day, the 2 mL of medium was removed from each well. 1.0 mL of test treatment solution, as described below, was added to each well, after which the wells were incubated for 1 minute on the bench at room temperature. Next, the test treatment solutions were removed, and 3.0 mL of undiluted THYE with 0.3% yeast extract and no sucrose was added to each well.
If an internal pH control was required, fresh THYE was also added to two un-inoculated wells. During these steps, care was taken to avoid disrupting the biofilm.
Immediately after 100% THYE with 0.3% yeast extract was added to the wells following incubation with the test treatments, the initial pH of the medium in each well was measured. Samples were incubated at 37° C. in an open air, bench-top incubator, and the pH of the medium was measured once an hour for the next 7-8 hours. Finally, the pH of the medium in each well was measured again the next morning.

O.O.O=C([O-])CC(O)(CC(=O)[O-])C(=O)[O-].[Na+].[Na+].[Na+] [Sodium Citrate, Sodium citrate dihydrate]
pH of the medium, Average (0 hours after treatment): 7.50
pH of the medium (0 hours after treatment, citrate dihydrate): 7.5 and 7.35 and 7.57 and 7.58
drop in pH of the medium (initial pH minus pH at 6 or 8 hours): little to no effect on the drop in pH
pH of the medium, Average (1 hour after treatment): 7.05
pH of the medium (1 hour after treatment, citrate dihydrate): 7.05 and 6.93 and 7.09 and 7.12
pH of the medium, Average (2 hours after treatment): 6.83
pH of the medium (2 hours after treatment, citrate dihydrate): 6.69 and 6.75 and 6.91 and 6.95
pH of the medium, Average (3 hours after treatment): 6.50
pH of the medium (3 hours after treatment, citrate dihydrate): 6.01 and 6.47 and 6.76 and 6.77
pH of the medium, Average (4 hours after treatment): 6.00
pH of the medium (4 hours after treatment, citrate dihydrate): 5.14 and 5.94 and 6.44 and 6.48
pH of the medium, Average (5 hours after treatment): 5.64
pH of the medium (5 hours after treatment, citrate dihydrate): 5.02 and 5.49 and 5.96 and 6.07
pH of the medium, Average (6 hours after treatment): 5.22
pH of the medium (6 hours after treatment, citrate dihydrate): 4.98 and 5.06 and 5.36 and 5.46
pH of the medium, Average (7 hours after treatment): 5.00
pH of the medium (7 hours after treatment, citrate dihydrate): 4.97 and 4.92 and 5.04 and 5.07
pH of the medium, Average (8 hours after treatment): 4.97
pH of the medium (8 hours after treatment, citrate dihydrate): 4.99 and 4.95 and 4.96
statistical significance of pH results compared to the water control: no statistically significant difference at any time

OC[C@@H](O)[C@H](O)[C@@H](O)CO [Xylitol]
pH of the medium, Average (0 hours after treatment): 7.50
pH of the medium (0 hours after treatment): 7.49 and 7.36 and 7.58 and 7.57
drop in pH of the medium (initial pH minus pH at 6 or 8 hours): able to slow the pH drop
pH of the medium, Average (1 hour after treatment): 7.08
pH of the medium (1 hour after treatment): 7.08 and 7 and 7.12 (2×)
pH of the medium, Average (2 hours after treatment): 6.87
pH of the medium (2 hours after treatment): 6.72 and 6.82 and 6.97 (2×)
pH of the medium, Average (3 hours after treatment): 6.58
pH of the medium (3 hours after treatment): 6.19 and 6.57 and 6.77 and 6.8
pH of the medium, Average (4 hours after treatment): 6.27
pH of the medium (4 hours after treatment): 5.77 and 6.17 and 6.55 and 6.57
pH of the medium, Average (5 hours after treatment): 6.00
pH of the medium (5 hours after treatment): 5.51 and 5.93 and 6.25 and 6.29
pH of the medium, Average (6 hours after treatment): 5.72
pH of the medium (6 hours after treatment): 5.23 and 5.55 and 6.05 and 6.06
pH of the medium, Average (7 hours after treatment): 5.52
pH of the medium (7 hours after treatment): 5.1 and 5.37 and 5.78 and 5.82
pH of the medium, Average (8 hours after treatment): 5.45
pH of the medium (8 hours after treatment): 5.09 and 5.58 and 5.68
statistical significance of pH results compared to the water control: statistically significant difference at 1, 6, 7, and 8 hours

O=C([O-])O.[Na+] [Sodium Bicarbonate, Sodium bicarbonate]
pH of the medium, Average (0 hours after treatment): 7.51
pH of the medium (0 hours after treatment): 7.48 and 7.39 and 7.58 and 7.59
drop in pH of the medium (initial pH minus pH at 6 or 8 hours): little to no effect on the drop in pH
pH of the medium, Average (1 hour after treatment): 7.07
pH of the medium (1 hour after treatment): 7.09 and 6.97 and 7.1 and 7.12
pH of the medium, Average (2 hours after treatment): 6.84
pH of the medium (2 hours after treatment): 6.67 and 6.81 and 6.93 and 6.96
pH of the medium, Average (3 hours after treatment): 6.52
pH of the medium (3 hours after treatment): 5.85 and 6.6 and 6.82 and 6.81
pH of the medium, Average (4 hours after treatment): 6.08
pH of the medium (4 hours after treatment): 5.08 and 6.21 and 6.49 and 6.53
pH of the medium, Average (5 hours after treatment): 5.69
pH of the medium (5 hours after treatment): 5.03 and 5.7 and 5.97 and 6.06
pH of the medium, Average (6 hours after treatment): 5.22
pH of the medium (6 hours after treatment): 5 and 5.11 and 5.33 and 5.42
pH of the medium, Average (7 hours after treatment): 5.01
pH of the medium (7 hours after treatment): 5 and 4.96 and 5.01 and 5.06
pH of the medium, Average (8 hours after treatment): 5.00
pH of the medium (8 hours after treatment): 5.06 and 4.96 and 4.97
statistical significance of pH results compared to the water control: statistically significant difference at 1 hour
